Experimental data taken from ChEMBL document CHEMBL5537115, “New broad-spectrum and potent antibacterial agents with dual-targeting mechanism: Promoting FtsZ polymerization and disrupting bacterial membranes” (Eur J Med Chem, 2024).
Converted amounts (≈) assume the structure as drawn.

Key:
Format in all cases: functional
Bacillus pumilus = experiment: Antibacterial activity against penicillin-susceptible Bacillus pumilus CMCC63202 assessed as bacterial growth inhibition incubated for 20 hrs by CLSI based broth microdilution method
Streptococcus pyogenes [1] = experiment: Antibacterial activity against erythromycin-resistant Streptococcus pyogenes 2 clinical isolate assessed as bacterial growth inhibition incubated for 20 hrs by CLSI based broth microdilution method
Staphylococcus aureus [2] = experiment: Antibacterial activity against penicillin-resistant Staphylococcus aureus ATCC31007 assessed as bacterial growth inhibition incubated for 20 hrs by CLSI based broth microdilution method
Acinetobacter baumannii = experiment: Antibacterial activity against Acinetobacter baumannii ATCC19606 assessed as bacterial growth inhibition incubated for 20 hrs by CLSI based broth microdilution method
Staphylococcus aureus [3] = experiment: Antibacterial activity against Staphylococcus aureus clinical isolate assessed as bacterial growth inhibition incubated for 20 hrs by CLSI based broth microdilution method
Enterococcus faecium [4] = experiment: Antibacterial activity against vancomycin-resistant Enterococcus faecium ATCC51559 assessed as bacterial growth inhibition incubated for 20 hrs by CLSI based broth microdilution method
Bacillus subtilis = experiment: Antibacterial activity against penicillin-susceptible Bacillus subtilis ATCC9372 assessed as bacterial growth inhibition incubated for 20 hrs by CLSI based broth microdilution method
[5] = system: Staphylococcus epidermidis; experiment: Antibacterial activity against penicillin-resistant Staphylococcus epidermidis clinical isolate assessed as bacterial growth inhibition incubated for 20 hrs by CLSI based broth microdilution method
Staphylococcus aureus [6] = experiment: Antibacterial activity against erythromycin-susceptible Staphylococcus aureus ATCC25923 assessed as bacterial growth inhibition incubated for 20 hrs by CLSI based broth microdilution method
Staphylococcus aureus [7] = experiment: Antibacterial activity against methicillin-resistant Staphylococcus aureus ATCC43300 assessed as bacterial growth inhibition incubated for 20 hrs by CLSI based broth microdilution method
Escherichia coli [8] = experiment: Antibacterial activity against wild-type Escherichia coli BW25113 assessed as bacterial growth inhibition incubated for 20 hrs by CLSI based broth microdilution method
Streptococcus pyogenes [9] = experiment: Antibacterial activity against erythromycin-susceptible Streptococcus pyogenes 1 assessed as bacterial growth inhibition incubated for 20 hrs by CLSI based broth microdilution method
Escherichia coli [10] = experiment: Antibacterial activity against penicillin-susceptible Escherichia coli ATCC25922 assessed as bacterial growth inhibition incubated for 20 hrs by CLSI based broth microdilution method
Enterococcus faecalis [11] = experiment: Antibacterial activity against vancomycin-susceptible Enterococcus faecalis ATCC29212 assessed as bacterial growth inhibition incubated for 20 hrs by CLSI based broth microdilution method
Klebsiella pneumoniae = experiment: Antibacterial activity against Klebsiella pneumoniae ATCC BAA-1902 assessed as bacterial growth inhibition incubated for 20 hrs by CLSI based broth microdilution method
Enterococcus faecalis [12] = experiment: Antibacterial activity against vancomycin-resistant Enterococcus faecalis ATCC51299 assessed as bacterial growth inhibition incubated for 20 hrs by CLSI based broth microdilution method
Enterococcus faecium [13] = experiment: Antibacterial activity against vancomycin-susceptible Enterococcus faecium ATCC19434 assessed as bacterial growth inhibition incubated for 20 hrs by CLSI based broth microdilution method

Compound | MIC (Bacillus pumilus) | MIC (Streptococcus pyogenes [1]) | MIC (Staphylococcus aureus [2]) | MIC (Acinetobacter baumannii) | MIC (Staphylococcus aureus [3]) | MIC (Enterococcus faecium [4]) | MIC (Bacillus subtilis) | MIC [5] | MIC (Staphylococcus aureus [6]) | MIC (Staphylococcus aureus [7]) | MIC (Escherichia coli [8]) | MIC (Streptococcus pyogenes [9]) | MIC (Escherichia coli [10]) | MIC (Enterococcus faecalis [11]) | MIC (Klebsiella pneumoniae) | MIC (Enterococcus faecalis [12]) | MIC (Enterococcus faecium [13])
C[n+]1cc(-c2ccccc2)cc(/C=C/c2ccccc2[N+](=O)[O-])c1-c1ccccc1.I | 64 µg/mL | 16 µg/mL | > 64 µg/mL | 64 µg/mL | 32 µg/mL | > 64 µg/mL | 16 µg/mL | 64 µg/mL | 8 µg/mL | 32 µg/mL | > 64 µg/mL | 16 µg/mL | > 64 µg/mL | > 64 µg/mL | > 64 µg/mL | > 64 µg/mL | > 64 µg/mL
COc1cc(/C=C/c2cc(-c3ccccc3)c[n+](C)c2-c2ccccc2)cc(OC)c1OC.[I-] | 64 µg/mL | 16 µg/mL | > 64 µg/mL | > 64 µg/mL | 16 µg/mL | > 64 µg/mL | 16 µg/mL | > 64 µg/mL | > 64 µg/mL | 64 µg/mL | > 64 µg/mL | 16 µg/mL | > 64 µg/mL | > 64 µg/mL | > 64 µg/mL | > 64 µg/mL | > 64 µg/mL
CCCCCCOc1ccc(/C=C/c2cc(-c3ccccc3)[n+](C)cc2-c2ccccc2)cc1.[I-] | 0.5 µg/mL | 2 µg/mL | 2 µg/mL | 4 µg/mL | 0.5 µg/mL | 1 µg/mL | 0.5 µg/mL | 2 µg/mL | 0.5 µg/mL | 2 µg/mL | 4 µg/mL | 2 µg/mL | 4 µg/mL | 2 µg/mL | 8 µg/mL | 2 µg/mL | 2 µg/mL
CCc1ccc(/C=C/c2cc(-c3ccc(C(C)(C)C)cc3)[n+](C)cc2-c2ccccc2C)cc1.[I-] | 1 µg/mL | 4 µg/mL | 1 µg/mL | 2 µg/mL | 0.5 µg/mL | 0.5 µg/mL | 0.5 µg/mL | 1 µg/mL | 0.125 µg/mL | 0.5 µg/mL | > 64 µg/mL | 4 µg/mL | 4 µg/mL | 2 µg/mL | 8 µg/mL | 1 µg/mL | 1 µg/mL
C=CC1=C(C(=O)O)N2C(=O)[C@@H](NC(=O)/C(=N\OCC(=O)O)c3csc(N)n3)[C@H]2SC1 [CEFIXIME] | > 64 µg/mL | < 0.062 µg/mL | > 64 µg/mL | 32 µg/mL (≈ 70.6 µM) | 8 µg/mL (≈ 17.6 µM) | > 64 µg/mL | 2 µg/mL (≈ 4.41 µM) | > 64 µg/mL | 1 µg/mL (≈ 2.21 µM) | 4 µg/mL (≈ 8.82 µM) | < 0.062 µg/mL | < 0.062 µg/mL | < 0.062 µg/mL | > 64 µg/mL | > 64 µg/mL | > 64 µg/mL | > 64 µg/mL
C[n+]1cc(-c2ccccc2)cc(/C=C/c2ccc(Cl)cc2)c1-c1ccccc1.[I-] | 8 µg/mL | 4 µg/mL | 16 µg/mL | 8 µg/mL | 2 µg/mL | 16 µg/mL | 4 µg/mL | 8 µg/mL | 2 µg/mL | 4 µg/mL | > 64 µg/mL | 4 µg/mL | 64 µg/mL | 16 µg/mL | > 64 µg/mL | 16 µg/mL | 16 µg/mL
CC[C@H]1OC(=O)[C@H](C)[C@@H](O[C@H]2C[C@@](C)(OC)[C@@H](O)[C@H](C)O2)[C@H](C)[C@@H](O[C@@H]2O[C@H](C)C[C@H](N(C)C)[C@H]2O)[C@](C)(O)C[C@@H](C)CN(C)[C@H](C)[C@@H](O)[C@]1(C)O [AZITHROMYCIN] | 0.5 µg/mL (≈ 0.668 µM) | > 64 µg/mL | > 64 µg/mL | 2 µg/mL (≈ 2.67 µM) | > 64 µg/mL | > 64 µg/mL | 0.25 µg/mL (≈ 0.334 µM) | > 64 µg/mL | 0.25 µg/mL (≈ 0.334 µM) | > 64 µg/mL | > 64 µg/mL | 0.03 µg/mL (≈ 0.0401 µM) | 64 µg/mL (≈ 85.4 µM) | 1 µg/mL (≈ 1.34 µM) | 64 µg/mL (≈ 85.4 µM) | > 64 µg/mL | 8 µg/mL (≈ 10.7 µM)
CN(C)[C@@H]1C(O)=C(C(N)=O)C(=O)[C@@]2(O)C(O)=C3C(=O)c4c(O)cccc4[C@@](C)(O)[C@H]3C[C@@H]12 [TETRACYCLINE] | 64 µg/mL (≈ 144 µM) | 64 µg/mL (≈ 144 µM) | 64 µg/mL (≈ 144 µM) | 8 µg/mL (≈ 18 µM) | 1 µg/mL (≈ 2.25 µM) | 2 µg/mL (≈ 4.5 µM) | 0.5 µg/mL (≈ 1.13 µM) | 32 µg/mL (≈ 72 µM) | 0.5 µg/mL (≈ 1.13 µM) | 0.5 µg/mL (≈ 1.13 µM) | 2 µg/mL (≈ 4.5 µM) | 1 µg/mL (≈ 2.25 µM) | 0.5 µg/mL (≈ 1.13 µM) | 64 µg/mL (≈ 144 µM) | 32 µg/mL (≈ 72 µM) | 2 µg/mL (≈ 4.5 µM) | 2 µg/mL (≈ 4.5 µM)
